# Assay results published in BindingDB's records for doi:10.1074/jbc.M113.487777 (McGill University, 2013).
# Target: T1, Inositol-pentakisphosphate 2-kinase (Mouse-ear cress, UniProt Q93YN9)
# T1 sequence (Q93YN9 whole entry): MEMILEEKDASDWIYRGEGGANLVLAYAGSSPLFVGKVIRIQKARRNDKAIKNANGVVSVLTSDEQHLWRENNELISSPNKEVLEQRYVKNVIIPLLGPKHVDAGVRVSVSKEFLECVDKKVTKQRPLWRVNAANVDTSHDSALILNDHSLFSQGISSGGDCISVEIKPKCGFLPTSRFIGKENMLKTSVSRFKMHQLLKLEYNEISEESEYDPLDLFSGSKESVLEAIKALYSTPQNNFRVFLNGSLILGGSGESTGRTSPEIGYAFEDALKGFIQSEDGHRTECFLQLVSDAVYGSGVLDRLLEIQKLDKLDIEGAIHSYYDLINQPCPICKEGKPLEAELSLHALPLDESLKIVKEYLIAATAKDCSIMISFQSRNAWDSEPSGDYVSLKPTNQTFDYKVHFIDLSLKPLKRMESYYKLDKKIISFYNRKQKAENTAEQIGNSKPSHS
# Experiment: Isothermal Titration Calorimetry (ITC)
# Conditions: pH 7.5; 25 °C
# Method: Experiments were performed on a MicroCal iTC200 titration calorimeter (GE Healthcare). Wild-type IPK1 was purified and dialyzed into ITC buffer containing 50 mM HEPES (pH 7.5), 6 mM MgCl2, 150 mM NaCl, and 1 mM tris(2-carboxyethyl)phosphine (pH 7.0). After protein dialysis was complete, dialysis buffer was used to dissolve the ligands, IP, and AMP-PNP (Jena Bioscience). Titration experiments were performed at 25 °C with 100 uM IPK1 and1mM AMP-PNP in the cell and 1-2 mM IP in the syringe to ensure a final IP:IPK1 molar ratio of at least 2:1. Titration experiments were performed at least twice for each IP, and one set was chosen to represent data.
row,Kd [µM],SMILES
1,18.2,"O=P(O)(O)O[C@H]1[C@H](O)[C@@H](OP(=O)(O)O)[C@H](OP(=O)(O)O)[C@@H](OP(=O)(O)O)[C@H]1O [1,3,4,5-Inositol tetrakisphosphate (1,3,4,5-IP4)]"
2,26.9,"O=P(O)(O)O[C@@H]1[C@@H](O)[C@H](OP(=O)(O)O)[C@@H](OP(=O)(O)O)[C@@H](O)[C@H]1OP(=O)(O)O [1,3,4,6-Inositol tetrakisphosphate (1,3,4,6-IP4)]"
3,8.2,"O=P(O)(O)O[C@@H]1[C@@H](OP(=O)(O)O)[C@H](OP(=O)(O)O)[C@@H](O)[C@@H](O)[C@H]1OP(=O)(O)O [1,4,5,6-Inositol tetrakisphosphate (1,4,5,6-IP4)]"
4,7.52,"O=P(O)(O)O[C@H]1[C@H](OP(=O)(O)O)[C@@H](OP(=O)(O)O)[C@@H](O)[C@@H](O)[C@@H]1OP(=O)(O)O [3,4,5,6-Inositol tetrakisphosphate (3,4,5,6-IP4)]"
5,0.6,"O=P(O)(O)O[C@@H]1[C@@H](OP(=O)(O)O)[C@H](OP(=O)(O)O)[C@H](O)[C@H](OP(=O)(O)O)[C@H]1OP(=O)(O)O [Inositol 1,3,4,5,6-pentakisphosphate (IP5)]"
